Literature values in article PMC7618104, “The GLP-1 analogue, exendin-4, improves bone material properties and strength through a central relay in ovariectomized mice” (American journal of physiology. Endocrinology and metabolism, 2025).
Ends that are not written are not given here.

What was measured:
CNS = details: mouse, in vivo, iv; cited from earlier work
Description: (§1) Taken altogether, these studies might support a brain entry through adsorptive transcytosis across brain endothelial cells. The l ...

[1] = test system: individuals in randomized clinical trials; details: cited from earlier work
Description: (§2) Previously, we and others have highlighted the beneficial role of several gut hormones on bone physiology ([5]). Among gut hormones, glucagon-like peptide-1 (GLP-1) was reported to be beneficial for bone strength. Indeed, animals with a genetic impairment of the GLP-1 receptor (GLP-1r) presented with reduced bone mass, deterioration of bone microarchitecture and alterations of bone material properties, especially enzymatic collagen crosslinking, that jeopardized bone strength ([6], [7]). In humans, GLP-1r gene polymorphisms have also been reported to impact bone mineral density and mass ([8]) ...

humans = details: exogenous GLP-1, humans; cited from earlier work
Description: as §2

osteoblast cultures = details: in vitro study; cited from earlier work
Description: These observations formed the basis for investigating the potential utility of a GLP-1r agonist for the management of bone fragility. Ex-4 has already been administered subcutaneously in preclinical models of bone fragility, including the OVX model used in the present study. Previous studies have reported positive effects of Ex-4 that increased bone mineral density, trabecular microstructure and circulating calcitonin leve ...

brain = details: in vivo; cited from earlier work
Description: as §1

[2] = test system: streptozotocin-induced type 1 diabetes mellitus; details: cited from earlier work

Substance	fracture in individuals affected by type 2 diabetes mellitus [1]	brain entry after peripheral administration (brain)	further results
[Ser8]GLP-1: radiolabeled [Ser8]GLP-1, a stable analogue of GLP-1 (HSEGTFTSDVSSYLEGQAAKEFIAWLVKGRG; also: radiolabeled; UniProt P01275 98-128, looked up, variant A8S)	–	–	CNS access, inhibition by excess unlabeled peptide or exendin antagonist (CNS): not inhibited by excess doses
lixisenatide	contribute to reduce fracture	–	–
glucagon-like peptide-1 (HAEGTFTSDVSSYLEGQAAKEFIAWLVKGR; ends and bridges not checked; UniProt P01275 98-127, looked up) [GLP-1, gut hormone]	–	–	bone remodeling (humans): rapidly modulates bone remodeling; collagen maturity in vitro (osteoblast cultures): no direct positive effects of GLP-1 on collagen maturity
semaglutide	–	reported to enter the brain parenchyma	–
liraglutide	contribute to reduce fracture	reported to enter the brain parenchyma	bone resistance to fracture [2]: able to enhance bone resistance to fracture
